Test results: PubChem BioAssay AID248 (DTP/NCI, 2004)
Where “and” joins values, the source holds several entries; their conditions need not be identical. Equal values may be shown once. Toxic doses and inconclusive results are not listed. Rule as the data show it: active = T/C of 150% or more; inactive = T/C below 125%.

System: L1210 leukemia ip in BDF1 mice, survival T/C
Assay: NCI In Vivo Anticancer Drug Screen. Data for tumor model L1210 Leukemia (intraperitoneal) in B6D2F1 (BDF1) mice
Conditions: endpoint: mean survival time, higher = longer survival
Outline: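 Transplanted-tumor mice were given test agent; controls received vehicle only. Survival readings from the two groups were divided (treated over control).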

[1] = dose: 12.5 mg/kg/injection, schedule: Q01DX009 (ip), vehicle: Klucel (hydroxypropylcellulose) (HPC)
[2] = dose: 25.0 mg/kg/injection, schedule: Q01DX009 (ip), vehicle: Klucel (hydroxypropylcellulose) (HPC)
[3] = dose: 50.0 mg/kg/injection, schedule: Q01DX009 (ip), vehicle: Klucel (hydroxypropylcellulose) (HPC)
[4] = dose: 100.0 mg/kg/injection, schedule: Q04DX002 (ip), vehicle: Klucel (hydroxypropylcellulose) (HPC)
[5] = dose: 200.0 mg/kg/injection, schedule: Q04DX002 (ip), vehicle: Klucel (hydroxypropylcellulose) (HPC)
[6] = dose: 100.0 mg/kg/injection, schedule: Q01DX009 (ip), vehicle: Klucel (hydroxypropylcellulose) (HPC)
[7] = dose: 100.0 mg/kg/injection, schedule: Q04DX003 (ip), vehicle: Klucel (hydroxypropylcellulose) (HPC)
[8] = dose: 200.0 mg/kg/injection, schedule: Q04DX003 (ip), vehicle: Klucel (hydroxypropylcellulose) (HPC)
[9] = dose: 400.0 mg/kg/injection, schedule: Q04DX003 (ip), vehicle: Klucel (hydroxypropylcellulose) (HPC)
[10] = dose: 100.0 mg/kg/injection, schedule: Q01DX001 (ip), vehicle: saline
[11] = dose: 100.0 mg/kg/injection, schedule: Q04DX003 (ip), vehicle: saline with Tween-80
[12] = dose: 200.0 mg/kg/injection, schedule: Q01DX001 (ip), vehicle: saline
[13] = dose: 200.0 mg/kg/injection, schedule: Q04DX003 (ip), vehicle: saline with Tween-80
[14] = dose: 400.0 mg/kg/injection, schedule: Q01DX001 (ip), vehicle: saline
[15] = dose: 400.0 mg/kg/injection, schedule: Q04DX003 (ip), vehicle: saline with Tween-80
[16] = dose: 100.0 mg/kg/injection, schedule: Q04DX003 (ip), vehicle: saline
[17] = dose: 200.0 mg/kg/injection, schedule: Q04DX003 (ip), vehicle: saline
[18] = dose: 200.0 mg/kg/injection, schedule: Q01DX009 (ip), vehicle: Klucel (hydroxypropylcellulose) (HPC)
[19] = dose: 400.0 mg/kg/injection, schedule: Q01DX009 (ip), vehicle: Klucel (hydroxypropylcellulose) (HPC)
[20] = dose: 400.0 mg/kg/injection, schedule: Q04DX002 (ip), vehicle: Klucel (hydroxypropylcellulose) (HPC)
[21] = dose: 50.0 mg/kg/injection, schedule: Q01DX001 (ip), vehicle: carboxymethylcellulose (CMC)
[22] = dose: 100.0 mg/kg/injection, schedule: Q01DX001 (ip), vehicle: carboxymethylcellulose (CMC)
[23] = dose: 200.0 mg/kg/injection, schedule: Q01DX001 (ip), vehicle: carboxymethylcellulose (CMC)
[24] = dose: 400.0 mg/kg/injection, schedule: Q01DX001 (ip), vehicle: carboxymethylcellulose (CMC)
[25] = dose: 400.0 mg/kg/injection, schedule: Q04DX003 (ip), vehicle: saline

Measured: T/C

CCCNC(=O)Sc1ccc(Cl)cc1
inactive: dose: 12.5 mg/kg/injection, schedule: Q01DX001 (ip), vehicle: Klucel (hydroxypropylcellulose) (HPC) 100 % of control | [1] 95 % of control and 110 % of control | dose: 25.0 mg/kg/injection, schedule: Q01DX001 (ip), vehicle: Klucel (hydroxypropylcellulose) (HPC) 95 % of control | [2] 97 % of control and 106 % of control | dose: 50.0 mg/kg/injection, schedule: Q01DX001 (ip), vehicle: Klucel (hydroxypropylcellulose) (HPC) 94 % of control | [3] 98 % of control | [4] 96 % of control | [5] 93 % of control and 86 % of control

O=[N+]([O-])c1cc([N+](=O)[O-])c(Nn2c3ccccc3c3ccccc32)c([N+](=O)[O-])c1
inactive: dose: 6.25 mg/kg/injection, schedule: Q01DX009 (ip), vehicle: Klucel (hydroxypropylcellulose) (HPC) 103 % of control | [1] 104 % of control and 87 % of control | [2] 100 % of control and 102 % of control | dose: 25.0 mg/kg/injection, schedule: Q04DX003 (ip), vehicle: Klucel (hydroxypropylcellulose) (HPC) 107 % of control | [3] 96 % of control | dose: 50.0 mg/kg/injection, schedule: Q04DX003 (ip), vehicle: Klucel (hydroxypropylcellulose) (HPC) 95 % of control | [6] 94 % of control | [7] 92 % of control and 96 % of control | [8] 94 % of control and 87 % of control | [9] 102 % of control

CC1OC(=O)NC1C(=O)O (configuration not stated)
inactive: [10] 120 % of control | dose: 100.0 mg/kg/injection, schedule: Q01DX009 (ip), vehicle: saline 91 % of control | [11] 106 % of control | [12] 98 % of control | dose: 200.0 mg/kg/injection, schedule: Q01DX009 (ip), vehicle: saline 101 % of control | [13] 103 % of control | [14] 101 % of control | dose: 400.0 mg/kg/injection, schedule: Q01DX009 (ip), vehicle: saline 89 % of control | [15] 95 % of control

BrCc1nc2ccccc2[nH]1
inactive: [10] 95 % of control | [12] 101 % of control | [14] 107 % of control

O=C1CCn2c1c(O)c1ccccc1c2=O
inactive: [10] 97 % of control | [12] 97 % of control

O=C1NC(=O)C([N+](=O)[O-])=C(O)C1=O
inactive: [16] 96 % of control | [17] 101 % of control

COc1ccc(C(O)c2cnc(C)n2Cc2ccccc2)cc1 (configuration not stated)
inactive: dose: 100.0 mg/kg/injection, schedule: Q01DX001 (ip), vehicle: Klucel (hydroxypropylcellulose) (HPC) 93 % of control | [6] 101 % of control and 105 % of control | [4] 94 % of control and 98 % of control and 106 % of control | [7] 93 % of control | dose: 200.0 mg/kg/injection, schedule: Q01DX001 (ip), vehicle: Klucel (hydroxypropylcellulose) (HPC) 102 % of control | [18] 100 % of control and 101 % of control | [5] 92 % of control and 95 % of control and 88 % of control | [8] 93 % of control | dose: 400.0 mg/kg/injection, schedule: Q01DX001 (ip), vehicle: Klucel (hydroxypropylcellulose) (HPC) 97 % of control | [19] 96 % of control and 90 % of control | [20] 95 % of control and 98 % of control and 91 % of control | [9] 95 % of control

CCOC(=O)C(Cc1c[nH]c2ccccc12)(NC=O)C(=O)OCC
inactive: [6] 91 % of control | [18] 100 % of control | [19] 91 % of control

CCN(CC)CCc1ccccn1
inactive: dose: 12.5 mg/kg/injection, schedule: Q01DX009 (ip), vehicle: saline 98 % of control | dose: 25.0 mg/kg/injection, schedule: Q01DX009 (ip), vehicle: saline 100 % of control | dose: 25.0 mg/kg/injection, schedule: Q04DX003 (ip), vehicle: saline 106 % of control | dose: 50.0 mg/kg/injection, schedule: Q01DX009 (ip), vehicle: saline 100 % of control | dose: 50.0 mg/kg/injection, schedule: Q04DX003 (ip), vehicle: saline 103 % of control

COc1cccc(NC(=O)NCCCl)c1
inactive: dose: 12.5 mg/kg/injection, schedule: Q01DX009 (ip), vehicle: saline with Tween-80 96 % of control | dose: 25.0 mg/kg/injection, schedule: Q01DX009 (ip), vehicle: saline with Tween-80 86 % of control | dose: 50.0 mg/kg/injection, schedule: Q01DX009 (ip), vehicle: saline with Tween-80 90 % of control

CSc1ccc(OC(=O)Nc2ccccc2C)cc1
inactive: [4] 95 % of control | [5] 106 % of control | [20] 114 % of control

COc1ccc2c3c1OC1C(C)(O)C(O)CC4C(C2)N(C)CCC341 (configuration not stated)
inactive: dose: 75.0 mg/kg/injection, schedule: Q01DX001 (ip), vehicle: saline 98 % of control | dose: 150.0 mg/kg/injection, schedule: Q01DX001 (ip), vehicle: saline 104 % of control | dose: 300.0 mg/kg/injection, schedule: Q01DX001 (ip), vehicle: saline 98 % of control

CCCC(=O)Nc1ccc(N=Nc2ccccc2)cc1
inactive: [2] 100 % of control | [3] 92 % of control | [6] 94 % of control and 96 % of control | [18] 95 % of control

CCOC(=O)NC(N)=O
inactive: [21] 92 % of control | dose: 75.0 mg/kg/injection, schedule: Q01DX009 (ip), vehicle: saline 100 % of control | [22] 97 % of control | [7] 110 % of control | [16] 107 % of control | dose: 150.0 mg/kg/injection, schedule: Q01DX009 (ip), vehicle: saline 103 % of control | [23] 95 % of control | [8] 98 % of control | [17] 98 % of control | dose: 300.0 mg/kg/injection, schedule: Q01DX009 (ip), vehicle: saline 100 % of control | [24] 92 % of control | [9] 98 % of control | [25] 102 % of control

Nc1ncnc2c1ncn2C1SC(CO)C(O)C1O (configuration not stated)
inactive: dose: 50.0 mg/kg/injection, schedule: Q01DX001 (ip), vehicle: saline 93 % of control and 103 % of control | [10] 102 % of control and 105 % of control | dose: 100.0 mg/kg/injection, schedule: Q01DX005 (ip), vehicle: saline 108 % of control and 95 % of control | [12] 104 % of control and 100 % of control | dose: 200.0 mg/kg/injection, schedule: Q01DX005 (ip), vehicle: saline 109 % of control and 95 % of control

NNCCC(=O)O
inactive: [10] 107 % of control | [12] 102 % of control | [14] 115 % of control

O=C(Nc1ccc2c(c1)C(=O)c1ccccc1-2)c1ccccc1
inactive: dose: 100.0 mg/kg/injection, schedule: Q01DX001 (ip), vehicle: saline with Tween-80 88 % of control | dose: 200.0 mg/kg/injection, schedule: Q01DX001 (ip), vehicle: saline with Tween-80 88 % of control | dose: 400.0 mg/kg/injection, schedule: Q01DX001 (ip), vehicle: saline with Tween-80 88 % of control

S=c1[nH]nc2scnn12
inactive: [21] 94 % of control | [22] 94 % of control | [23] 97 % of control | [24] 94 % of control

CC(Br)c1ccc2c(c1)Cc1ccccc1-2 (configuration not stated)
inactive: [22] 97 % of control | [23] 89 % of control | [24] 97 % of control

CCCCCCCCCCCC(C)(O)CC (configuration not stated)
inactive: [11] 95 % of control | [13] 95 % of control | [15] 101 % of control

CCCCCCC(CCCCCC)(CCCCCC)B1OCCO1
inactive: dose: 100.0 mg/kg/injection, schedule: Q01DX009 (ip), vehicle: saline sonified 96 % of control | [16] 102 % of control | dose: 200.0 mg/kg/injection, schedule: Q01DX009 (ip), vehicle: saline sonified 106 % of control | [17] 102 % of control | dose: 400.0 mg/kg/injection, schedule: Q01DX009 (ip), vehicle: saline sonified 95 % of control | [25] 96 % of control
